Results reported in US20090176817A1, “Method of Treatment of Diarrhea-Predominant Irritable Bowel Syndrome in a Subject” (priority 2005, published 2009).

Test system: diarrhea-predominant IBS subjects
Assay: Study S241.3.011: weekly diary questions on adequate relief
Type: in vivo, human
Details: for Number of months a subject was a responder: Zero months (IBS symptoms) / Overall responder rate, adequate relief of IBS symptoms / Overall responder rate, adequate relief of abdominal pain/discomfort / Overall responder rate, adequate relief of abnormal bowel habits / Number of months a subject was a responder: One month (Abdominal pain/discomfort) / Number of months a subject was a responder: One month (Abnormal bowel habits) / Number of months a subject was a responder: One month (IBS symptoms) / Number of months a subject was a responder: Three months (Abdominal pain/discomfort) / Number of months a subject was a responder: Three months (Abnormal bowel habits) / Number of months a subject was a responder: Three months (IBS symptoms) / Number of months a subject was a responder: Two months (Abdominal pain/discomfort) / Number of months a subject was a responder: Two months (Abnormal bowel habits) / Number of months a subject was a responder: Two months (IBS symptoms) / Number of months a subject was a responder: Zero months (Abdominal pain/discomfort) / Number of months a subject was a responder: Zero months (Abnormal bowel habits): three-month treatment period; for Number of months a subject was a responder: Zero months (IBS symptoms) / Number of months a subject was a responder: One month (Abdominal pain/discomfort) / Number of months a subject was a responder: One month (Abnormal bowel habits) / Number of months a subject was a responder: One month (IBS symptoms) / Number of months a subject was a responder: Three months (Abdominal pain/discomfort) / Number of months a subject was a responder: Three months (Abnormal bowel habits) / Number of months a subject was a responder: Three months (IBS symptoms) / Number of months a subject was a responder: Two months (Abdominal pain/discomfort) / Number of months a subject was a responder: Two months (Abnormal bowel habits) / Number of months a subject was a responder: Two months (IBS symptoms) / Number of months a subject was a responder: Zero months (Abdominal pain/discomfort) / Number of months a subject was a responder: Zero months (Abnormal bowel habits): monthly LOCF; for Overall responder rate, adequate relief of IBS symptoms / Overall responder rate, adequate relief of abdominal pain/discomfort / Overall responder rate, adequate relief of abnormal bowel habits: observed case
Protocol: Study S241.3.011 was a Phase III, double-blind, placebo-controlled, randomized, multinational study to investigate the safety and efficacy of 2 mg TID of cilansetron for a period of 12 weeks followed by a rerandomized, placebo-controlled four-week treatment period, in diarrhea-predominant IBS subjects. The study was conducted in six countries including the US. A total of 2115 subjects consented to participate, and 770 subjects were randomized. A total of 746 subjects were analyzed for efficacy and 755 subjects were analyzed for safety. Diagnosis and main criteria for inclusion were IBS subjects satisfying the Rome I criteria (1992); the diarrhea predominant sub-population of the Rome II criteria; and a minimum abdominal pain/discomfort, stool frequency and consistency determined during the run-in period. Subjects were treated with cilansetron 2 mg tablets given orally TID or matching placebo tablets given orally TID for 12 weeks followed by a rerandomized, placebo-controlled four-week treatment period.
The primary efficacy parameter was the number of months that a subject was a responder for IBS symptoms (abdominal pain, abdominal discomfort, abnormal bowel habits) over the 12-week treatment period. A responder for a month (monthly responder) was defined as a subject who answered the weekly question with “yes” at least twice for that month. The two main secondary efficacy parameters were the monthly responder rates based on the “adequate relief” questions regarding abdominal pain/discomfort and abnormal bowel habits during the 12-week treatment period. The overall response rate and responder rate for the weekly diary questions on adequate relief at each month and all months, the adequate relief rate, the number of subjects with adequate relief by week, daily diary questions, IBS-QOL scores, and the interruption of activities were also assessed. Safety was evaluated by physical examination, ECG, vital signs, laboratory evaluations, concomitant medications, and AEs.
Subjects who were initially randomized to the cilansetron 2 mg TID group and rerandomized to placebo, will be referred to as the C/P treatment group; subjects initially randomized to the placebo group and rerandomized to placebo will be referred to as the P/P treatment group; the P/C and C/C treatment group nomenclature follow the same principle. Of the 591 subjects who completed the three-month treatment period, 576 subjects were rerandomized and thus divided into the following treatment groups: 150 subjects in the C/C treatment group, 140 subjects in the C/P treatment group, 136 subjects in the P/C treatment group, and 150 subjects in the P/P treatment group. Of the 576 subjects rerandomized, a higher percentage of subjects in the C/C treatment group (99%) completed the study compared with the C/P (95%), P/C (93%), and the P/P (95%) treatment groups.
Studies S24 1.3.OO6, S24 1.3.0 1 1, and S24 1.3.009 used the following efficacy measurements: • The subjects answered the following three questions with “yes” or “no” using a phone diary at the end of each week: • a) During the last week, did you experience adequate relief of your IBS symptoms, such as abdominal pain, abdominal discomfort, abnormal bowel habits? • b) During the last week, did you experience adequate relief of your abdominal pain and/or discomfort? • c) During the last week, did you experience adequate relief of your abnormal bowel habits? • The subjects rated the following symptoms using the phone diary at the end of each day: • abdominal pain/discomfort (five-point scale); • stool consistency (seven-point Bristol Stool Scale); • stool frequency (number of bowel movements each day); • urgency (five-point scale); • straining (yes or no); • feeling of incomplete defecation (yes or no); • bloating or feeling of abdominal distension (five-point scale). • In Studies S241 A006 and S241.3.009, subjects completed the IBS-QOL Survey at Baseline (Day 1) and at the end of treatment. […]

[1] = Baseline BMI: <30 kg/m^2, ITT, 2 mg TID
[2] = Baseline BMI: ≧30 kg/m^2, ITT, 2 mg TID
[3] = Baseline severity of IBS: non-severe, ITT, 2 mg TID
[4] = Baseline severity of IBS: severe, ITT, 2 mg TID
[5] = Duration of IBS: >24 months to ≦48 months, 2 mg TID, monthly LOCF imputation, ITT

Cc1nccn1C[C@H]1CCc2c(c3cccc4c3n2CCC4)C1=O [Cilansetron, (R)-(−)-4,5,6,8,9,10-hexahydro-10-[(2-methyl-1H-imidazol-1-yl)methyl]-11H-pyrido-[3,2,1-jk]-carbazol-11-one]
Number of months a subject was a responder: Zero months (IBS symptoms) [1]: 73 (27) n (%)
Overall responder rate, adequate relief of IBS symptoms [1]: 148 (56) n (%)
Overall responder rate, adequate relief of abdominal pain/discomfort [1]: 158 (59) n (%)
Overall responder rate, adequate relief of abnormal bowel habits [1]: 150 (56) n (%)
Number of months a subject was a responder: One month (Abdominal pain/discomfort) [2]: 15 (14) n (%)
Number of months a subject was a responder: One month (Abnormal bowel habits) [2]: 17 (15) n (%)
Number of months a subject was a responder: One month (IBS symptoms) [2]: 16 (14) n (%)
Number of months a subject was a responder: Three months (Abdominal pain/discomfort) [2]: 46 (41) n (%)
Number of months a subject was a responder: Three months (Abnormal bowel habits) [2]: 45 (41) n (%)
Number of months a subject was a responder: Three months (IBS symptoms) [2]: 41 (37) n (%)
Number of months a subject was a responder: Two months (Abdominal pain/discomfort) [2]: 22 (20) n (%)
Number of months a subject was a responder: Two months (Abnormal bowel habits) [2]: 15 (14) n (%)
Number of months a subject was a responder: Two months (IBS symptoms) [2]: 22 (20) n (%)
Number of months a subject was a responder: Zero months (Abdominal pain/discomfort) [2]: 28 (25) n (%)
Number of months a subject was a responder: Zero months (Abnormal bowel habits) [2]: 34 (31) n (%)
Number of months a subject was a responder: Zero months (IBS symptoms) [2]: 32 (29) n (%)
Overall responder rate, adequate relief of IBS symptoms [2]: 58 (52) n (%)
Overall responder rate, adequate relief of abdominal pain/discomfort [2]: 63 (57) n (%)
Overall responder rate, adequate relief of abnormal bowel habits [2]: 53 (48) n (%)
Number of months a subject was a responder: One month (Abdominal pain/discomfort) [3]: 25 (11) n (%)
Number of months a subject was a responder: One month (Abnormal bowel habits) [3]: 26 (12) n (%)
Number of months a subject was a responder: One month (IBS symptoms) [3]: 29 (13) n (%)
Number of months a subject was a responder: Three months (Abdominal pain/discomfort) [3]: 97 (44) n (%)
Number of months a subject was a responder: Three months (Abnormal bowel habits) [3]: 88 (40) n (%)
Number of months a subject was a responder: Three months (IBS symptoms) [3]: 92 (41) n (%)
Number of months a subject was a responder: Two months (Abdominal pain/discomfort) [3]: 40 (18) n (%)
Number of months a subject was a responder: Two months (Abnormal bowel habits) [3]: 40 (18) n (%)
Number of months a subject was a responder: Two months (IBS symptoms) [3]: 39 (18) n (%)
Number of months a subject was a responder: Zero months (Abdominal pain/discomfort) [3]: 60 (27) n (%)
Number of months a subject was a responder: Zero months (Abnormal bowel habits) [3]: 68 (31) n (%)
Number of months a subject was a responder: Zero months (IBS symptoms) [3]: 62 (28) n (%)
Overall responder rate, adequate relief of IBS symptoms [3]: 124 (56) n (%)
Overall responder rate, adequate relief of abdominal pain/discomfort [3]: 131 (59) n (%)
Overall responder rate, adequate relief of abnormal bowel habits [3]: 121 (55) n (%)
Number of months a subject was a responder: One month (Abdominal pain/discomfort) [4]: 20 (13) n (%)
Number of months a subject was a responder: One month (Abnormal bowel habits) [4]: 24 (15) n (%)
Number of months a subject was a responder: One month (IBS symptoms) [4]: 25 (16) n (%)
Number of months a subject was a responder: Three months (Abdominal pain/discomfort) [4]: 62 (40) n (%)
Number of months a subject was a responder: Three months (Abnormal bowel habits) [4]: 61 (39) n (%)
Number of months a subject was a responder: Three months (IBS symptoms) [4]: 56 (36) n (%)
Number of months a subject was a responder: Two months (Abdominal pain/discomfort) [4]: 32 (21) n (%)
Number of months a subject was a responder: Two months (Abnormal bowel habits) [4]: 26 (17) n (%)
Number of months a subject was a responder: Two months (IBS symptoms) [4]: 31 (20) n (%)
Number of months a subject was a responder: Zero months (Abdominal pain/discomfort) [4]: 41 (26) n (%)
Number of months a subject was a responder: Zero months (Abnormal bowel habits) [4]: 44 (28) n (%)
Number of months a subject was a responder: Zero months (IBS symptoms) [4]: 43 (28) n (%)
Overall responder rate, adequate relief of IBS symptoms [4]: 82 (53) n (%)
Overall responder rate, adequate relief of abdominal pain/discomfort [4]: 90 (58) n (%)
Overall responder rate, adequate relief of abnormal bowel habits [4]: 82 (53) n (%)
Overall responder rate, IBS symptoms (Caucasians): 53%
Overall responder rate, abdominal pain/discomfort (Caucasians): 57%
Overall responder rate, abnormal bowel habits (Caucasians): 51%
Number of months a subject was a responder during the three-month treatment period: Abdominal pain/discomfort, One month [5]: 10 (14) n (%)
Number of months a subject was a responder during the three-month treatment period: Abdominal pain/discomfort, Three months [5]: 32 (44) n (%)
Number of months a subject was a responder during the three-month treatment period: Abdominal pain/discomfort, Two months [5]: 15 (21) n (%)
Number of months a subject was a responder during the three-month treatment period: Abdominal pain/discomfort, Zero months [5]: 15 (21) n (%)
Number of months a subject was a responder during the three-month treatment period: Abnormal bowel habits, One month [5]: 10 (14) n (%)
Number of months a subject was a responder during the three-month treatment period: Abnormal bowel habits, Three months [5]: 32 (44) n (%)
